Data reported in patent publication US20090005248A1, “SYNERGISTIC HERBICIDAL COMPOSITION CONTAINING A SUBSTITUTED PHENOXY ALKANOIC ACID DERIVATIVE AND A GLYPHOSATE DERIVATIVE” (Dow AgroSciences LLC, priority 2007, published 2009).

Assays:
Assay type in all cases: in vivo
[1] = tested on: field bindweed (Polygonum convolvulus; POLCO); experiment: Greenhouse foliar application, visual herbicidal activity on POLCO; settings: 14 to 21 days after application
Description: (§1) 2,4-D (dimethylamine salt), dichlorprop (potassium salt) and Glyphomax XRT® herbicide (isopropylamine salt) alone and in combinations were applied to the foliage of rapidly growing plant material utilizing a track sprayer calibrated to deliver an application volume of 187 L/ha. Treated plant material was maintained in a greenhouse that provided a 16-hr photoperiod, supplemented with metal halide-generated light, set to provide a minimum of 500 μmolm^−2s^−1. The greenhouse was maintained at a temperature of 26 to 28° C. and a relative humidity of 50 to 70%. Assessment of herbicidal activity was performed visually 14 to 21 days after application.
(§2) The expected growth reduction of plant species from the combination of herbicides was calculated utilizing the Colby equation:
(§3) Expected growth reduction (E)=X+Y−(X*Y/100)
(§4) where X is % of growth reduction of a weed at a given concentration of a herbicide (or herbicide formulation) and Y is the % growth reduction of the same species and size weed at a given concentration of an independent herbicide (or herbicide formulation).

[2] = tested on: hemp sesbania (Sesbania exaltata; SEBEX); experiment: Greenhouse foliar application, visual herbicidal activity on SEBEX; settings: 14 to 21 days after application
Description: as §1, §2, §3, §4

[3] = tested on: spiderwort (Commelina benghalensis; COMBE); experiment: Greenhouse foliar application, visual herbicidal activity on COMBE; settings: 14 to 21 days after application
Description: as §1, §2, §3, §4

[4] = tested on: common waterhemp (Amaranthus rudis; AMATA); experiment: Greenhouse foliar application, visual herbicidal activity on AMATA; settings: 14 to 21 days after application
Description: as §1, §2, §3, §4

[5] = tested on: glyphosate-resistant Conyza canadensis (ERICA); experiment: Greenhouse foliar application, visual herbicidal activity on glyphosate-resistant ERICA; settings: 14 to 21 days after application
Description: as §1, §2, §3, §4

[6] = tested on: Canada thistle (Cirsium arvense; CIRAR); experiment: Greenhouse foliar application, visual herbicidal activity on CIRAR; settings: 14 to 21 days after application
Description: as §1, §2, §3, §4

[7] = tested on: glyphosate-susceptible Conyza canadensis (ERICA); experiment: Greenhouse foliar application, visual herbicidal activity on glyphosate-susceptible ERICA; settings: 14 to 21 days after application
Description: as §1, §2, §3, §4

[8] = tested on: velvetleaf (Abutilon theophrasti; ABUTH); experiment: Greenhouse foliar application, visual herbicidal activity on ABUTH; settings: 14 to 21 days after application
Description: as §1, §2, §3, §4

[9] = tested on: ivyleaf morning glory (Ipomoea hederacea; IPOHE); experiment: Greenhouse foliar application, visual herbicidal activity on IPOHE; settings: 14 to 21 days after application
Description: as §1, §2, §3, §4

[10] = tested on: common ragweed (Ambrosia artemesifolia; AMBEL); experiment: Greenhouse foliar application, visual herbicidal activity on AMBEL; settings: 14 to 21 days after application
Description: as §1, §2, §3, §4

[11] = tested on: glyphosate-resistant horseweed (ERICA, Conyza canadensis); experiment: Field study at Church Hill, Md., percent visual control of glyphosate-resistant horseweed; settings: 29 days after application
Procedure: as §2, §3, §4
A field study was conducted at Church Hill, Md. where glyphosate-resistant horseweed (ERICA, Conyza canadensis) had been observed for 2-3 years prior to the start of this study. The study design was a split-plot with 4 replications per treatment and each plot was 3.048 M wide and 9.144 M long. The environmental conditions at the time of application were as follows: air temperature, 22° C.; wind speed, 6 kph; wind direction, south; releative humidity, 85%; cloud cover, 80%; target foliage moisture, none; soil moisture, moist; soil temperature at 5 cm depth, 21° C. The treatments were applied using a backpack CO2 sprayer, with six XR8003 flat fan nozzles spaced 46 cm apart (boom length: 2.76 M) and held 40 cm above the plant canopy. The sprayer was operated at 103 kPa and 4.8 kilometers per hour to deliver 187 L of water per hectare. At the time of applications the glyphosate-resistant horseweed were 30-38 cm tall and there were between 10 and 20 plants per square meter (m^2). The percent visual control of glyphosate-resistant horseweed was rated over the entire plot (27.87 m^2) 29 days after application. In each plot between 278 and 557 glyphosate-resistant horseweed plants were rated, collectively, for percent visual control.

[12] = tested on: prickly sida (Sida spinosa; SIDSP); experiment: Greenhouse foliar application, visual herbicidal activity on SIDSP; settings: 2,4-D 140 g ae/ha alone, 14 to 21 days after application
Description: as §1, §2, §3, §4

## CC(Oc1ccc(Cl)cc1Cl)C(=O)O (stereo not drawn) [Dichlorprop, 2,4-dichlorophenoxy propionic acid]
[1]; Dichlorprop 140 g ae/ha alone
  Actual Injury (% growth reduction): 38 % growth reduction
[2]; Dichlorprop 140 g ae/ha alone
  Actual Injury (% growth reduction): 38 % growth reduction
[3]; Dichlorprop 70 g ae/ha alone
  Actual Injury (% growth reduction): 80 % growth reduction
[4]; Dichlorprop 280 g ae/ha alone
  Actual Injury (% growth reduction): 48 % growth reduction
[5]; Dichlorprop 210 g ae/ha alone
  Actual Injury (% growth reduction): 43 % growth reduction
[6]; Dichlorprop 70 g ae/ha alone
  Actual Injury (% growth reduction): 48 % growth reduction
[7]; Dichlorprop 210 g ae/ha alone
  Actual Injury (% growth reduction): 43 % growth reduction
[8]; Dichlorprop 70 g ae/ha alone
  Actual Injury (% growth reduction): 33 % growth reduction
[9]; Dichlorprop 70 g ae/ha alone
  Actual Injury (% growth reduction): 68 % growth reduction
[10]; Dichlorprop 280 g ae/ha alone
  Actual Injury (% growth reduction): 58 % growth reduction

## O=C(O)COc1ccc(Cl)cc1Cl [2,4-D, 2,4-dichlorophenoxy acetic acid]
[1]; 2,4-D 280 g ae/ha alone
  Actual Injury (% growth reduction): 32 % growth reduction
[2]; 2,4-D 280 g ae/ha alone
  Actual Injury (% growth reduction): 37 % growth reduction
[3]; 2,4-D 140 g ae/ha alone
  Actual Injury (% growth reduction): 48 % growth reduction
[4]; 2,4-D 280 g ae/ha alone
  Actual Injury (% growth reduction): 53 % growth reduction
[5]; 2,4-D 70 g ae/ha alone
  Actual Injury (% growth reduction): 38 % growth reduction
[11]; 2,4-D 280 g ae/ha alone
  Actual Injury (% growth reduction): 12.5 % growth reduction
[11]; 2,4-D 560 g ae/ha alone
  Actual Injury (% growth reduction): 23.0 % growth reduction
[11]; 2,4-D 1120 g ae/ha alone
  Actual Injury (% growth reduction): 36.3 % growth reduction
[6]; 2,4-D 280 g ae/ha alone
  Actual Injury (% growth reduction): 38 % growth reduction
[7]; 2,4-D 35 g ae/ha alone
  Actual Injury (% growth reduction): 47 % growth reduction
[8]; 2,4-D 280 g ae/ha alone
  Actual Injury (% growth reduction): 28 % growth reduction
[12]
  Actual Injury (% growth reduction): 17 % growth reduction
[9]; 2,4-D 70 g ae/ha alone
  Actual Injury (% growth reduction): 17 % growth reduction
[10]; 2,4-D 140 g ae/ha alone
  Actual Injury (% growth reduction): 61 % growth reduction
